The record followed here is ChEMBL document CHEMBL5053519, “Discovery and structure - activity relationship exploration of pyrazolo[1,5-a]pyrimidine derivatives as potent FLT3-ITD inhibitors” (Bioorg Med Chem, 2021).

For one assay, the system named is MOLM-13. Put plainly: cells. The following applies: Homo sapiens, MOLM-13, 72 h.
The target in assay [1] is T1, Receptor-type tyrosine-protein kinase FLT3 (Homo sapiens, UniProt P36888).
T1 sequence (P36888 whole entry): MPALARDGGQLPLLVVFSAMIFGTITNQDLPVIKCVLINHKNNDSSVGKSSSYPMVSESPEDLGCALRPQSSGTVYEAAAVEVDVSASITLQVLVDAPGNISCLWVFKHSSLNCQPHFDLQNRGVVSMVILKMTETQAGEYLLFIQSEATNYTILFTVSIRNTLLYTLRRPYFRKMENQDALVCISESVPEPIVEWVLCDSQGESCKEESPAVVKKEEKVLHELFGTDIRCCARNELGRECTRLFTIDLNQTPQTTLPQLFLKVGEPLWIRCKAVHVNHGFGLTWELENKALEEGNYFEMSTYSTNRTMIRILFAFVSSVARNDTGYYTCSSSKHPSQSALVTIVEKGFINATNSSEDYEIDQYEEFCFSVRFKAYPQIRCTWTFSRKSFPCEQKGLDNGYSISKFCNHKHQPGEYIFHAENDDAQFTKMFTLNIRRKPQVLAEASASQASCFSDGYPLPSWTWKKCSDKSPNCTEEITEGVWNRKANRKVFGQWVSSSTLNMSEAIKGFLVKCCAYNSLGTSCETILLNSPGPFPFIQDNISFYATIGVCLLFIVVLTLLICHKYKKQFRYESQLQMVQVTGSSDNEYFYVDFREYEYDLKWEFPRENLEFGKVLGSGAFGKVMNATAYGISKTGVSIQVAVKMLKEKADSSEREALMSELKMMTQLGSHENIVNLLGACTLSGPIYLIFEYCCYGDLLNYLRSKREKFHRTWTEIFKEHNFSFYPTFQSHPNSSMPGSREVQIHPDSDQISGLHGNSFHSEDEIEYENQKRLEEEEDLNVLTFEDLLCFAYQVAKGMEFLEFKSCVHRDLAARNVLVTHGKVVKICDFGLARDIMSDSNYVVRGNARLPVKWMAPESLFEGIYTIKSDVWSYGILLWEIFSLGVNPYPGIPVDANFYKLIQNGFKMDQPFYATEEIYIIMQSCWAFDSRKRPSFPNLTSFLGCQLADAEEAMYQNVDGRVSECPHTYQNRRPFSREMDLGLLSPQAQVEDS
Description: Inhibition of FLT3 (unknown origin) using Poly (Glu,Tyr) 4:1 as substrate incubated for 1 hr in presence of ATP by ELISA

A further assay concerns MV4-11. Put plainly: cells. The following applies: Homo sapiens, MV4-11, 72 h.
The target in assay [2] is Receptor-type tyrosine-protein kinase FLT3 (Homo sapiens, UniProt P36888, ITD).
Description: Inhibition of FLT3-ITD mutant (unknown origin) using Poly (Glu,Tyr) 4:1 as substrate incubated for 1 hr in presence of ATP by ELISA
The target of assay [3] is Receptor-type tyrosine-protein kinase FLT3 (Homo sapiens) (UniProt P36888). Put plainly: Inhibition of FLT3 in human MV4-11 cells assessed as suppression of Erk phosphorylation incubated for 2 hrs by Western blot analysis. The class given is cell-based. The following applies: dose 0.1-10 nM. A general note: Immunoblotting shows a protein as a band on a membrane.
Assay [4] shares this target. Particulars: MV4-11, dose 1.1 nM, time 2.0 hrs.
Assay [5] shares this target. The assay can be described thus: Inhibition of FLT3 phosphorylation in human MV4-11 cells at 0.1 to 10 nM incubated for 2 hrs by Western blot analysis. The class given is cell-based. Particulars: dose 0.1-10 nM.
Assay [6] shares this target. The following applies: MV4-11, dose 1.1 nM, time 2.0 hrs. The source holds these as a separate data set.
Assay [7] deals with Receptor-type tyrosine-protein kinase FLT3 (Homo sapiens, UniProt P36888, D835Y).

The source made the active and inactive calls. No cut-off for these calls is given here.

Description for MOLM-13: Antiproliferative activity against human MOLM-13 cells assessed as reduction in cell viability incubated for 72 hrs by CCK8 assay
Description for MV4-11: Antiproliferative activity against human MV4-11 cells assessed as reduction in cell viability incubated for 72 hrs by CCK8 assay

For `O=C(Nc1ccc(N2CCOCC2)cc1)c1cnn2ccc(N[C@@H]3CCCNC3)nc12`, the IC50 (commonly the concentration at which inhibition is half-maximal) was 37.1 nM with MOLM-13, 37.7 nM in assay [1], 23.5 nM in the assay on MV4-11 and 21.6 nM in assay [2].
With `CN1CCC[C@@H](Nc2ccn3ncc(C(=O)Nc4ccc(N5CCOCC5)cc4C(F)(F)F)c3n2)C1`, the IC50 turned out to be 262 nM with MOLM-13, 264 nM in [1], 23.4 nM with MV4-11 and 181 nM in assay [2].
Consider `COc1cc(N2CCOCC2)ccc1NC(=O)c1cnn2ccc(N[C@@H]3CCCNC3)nc12`, for which the IC50 in the assay with MOLM-13 is 10.3 nM; in assay [1] it was 2.7 nM; with MV4-11 it was 1 nM; in [2], 3.1 nM.
Consider `COc1cc(N(C)CCN(C)C)ccc1NC(=O)c1cnn2ccc(N[C@@H]3CCCNC3)nc12`, for which the IC50 was 23.5 nM with MOLM-13, 3.5 nM in assay [1], 10 nM in the assay with MV4-11 and 37.5 nM in assay [2].
In the case of `COc1cc(N2CCCCC2)ccc1NC(=O)c1cnn2ccc(N[C@@H]3CCCNC3)nc12`, the IC50 with MOLM-13 is 13 nM; in assay [1], 8 nM; with MV4-11, 9.8 nM; in [2], 69.5 nM.
As for `COc1cc(N2CCN(C)CC2)ccc1NC(=O)c1cnn2ccc(N3CCC[C@@H](N)C3)nc12`, the IC50 with MOLM-13 worked out at 17 nM; in [1] it was 12 nM; in the assay with MV4-11, 7 nM; in assay [2], 3.7 nM.
Regarding `CN(c1ccn2ncc(C(=O)Nc3ccc(N4CCOCC4)cc3C(F)(F)F)c2n1)[C@@H]1CCCNC1`, the IC50 in the assay on MOLM-13 was greater than 1000 nM; in assay [1], 160 nM; in the assay with MV4-11, greater than 1000 nM; in assay [2], greater than 1000 nM.
As to `O=C(Nc1ccc(N2CCOCC2)cc1C(F)(F)F)c1cnn2ccc(N[C@H]3CN4CCC3CC4)nc12`, the IC50 in the assay with MOLM-13 amounted to 26.3 nM; in assay [1], 7 nM; with MV4-11, 5.13 nM; in [2], 11.7 nM.
In the same order, the values of `O=C(Nc1ccc(N2CCOCC2)cc1C(F)(F)F)c1cnn2ccc(N[C@H]3CCCNC3)nc12` are 111 nM, greater than 1000 nM, 12.9 nM and 296 nM.
As to `COc1cc(N2CCN(S(C)(=O)=O)CC2)ccc1NC(=O)c1cnn2ccc(N3CCC[C@@H](N)C3)nc12`, the IC50 with MOLM-13 was found to be 43.7 nM; in [1], 3.9 nM; in the assay with MV4-11, 26.5 nM; in assay [2], 18.7 nM.
The like results for `COc1cc(N2CCC(N3CCOCC3)CC2)ccc1NC(=O)c1cnn2ccc(N[C@@H]3CCCNC3)nc12` were, in that order, 10.3 nM, 2.9 nM, 6.3 nM and 18 nM.
As for `COc1cc(N2CCNCC2)ccc1NC(=O)c1cnn2ccc(N3CCC[C@@H](N)C3)nc12`, the IC50 was determined as 249 nM with MOLM-13, 3.8 nM in assay [1], 46 nM with MV4-11 and 1.9 nM in assay [2].
In the same order, the values of `N#Cc1cc(N2CCOCC2)ccc1NC(=O)c1cnn2ccc(N[C@@H]3CCCNC3)nc12` are 3.7 nM, 2.6 nM, 0.6 nM and 2 nM.
In the same order, the values of `CC(C)Oc1cc(N2CCOCC2)ccc1NC(=O)c1cnn2ccc(N[C@@H]3CCCNC3)nc12` are 35.9 nM, 32.9 nM, 34.8 nM and 197 nM.
In the same order, the values of `O=C(Nc1ccc(N2CCOCC2)cc1C(F)(F)F)c1cnn2ccc(NC3CNC3)nc12` are 157 nM, 39.9 nM, 29.5 nM and 30.7 nM.
In the case of `O=C(Nc1ccc(N2CCOCC2)cc1C(F)(F)F)c1cnn2ccc(N[C@@H]3CCCCNC3)nc12`, the IC50 in the assay on MOLM-13 is 1.4 nM; in assay [1] it was 0.8 nM; with MV4-11, less than 0.32 nM; in [2], 0.5 nM.
As for `O=C(Nc1ccc(N2CCOCC2)cc1C(F)(F)F)c1cnn2ccc(N[C@@H]3CCCNC3)nc12`, the inhibition (commonly the share of the control response that was lost under treatment) in assay [3] was “Dose-dependent effect”; in [4], 100%; in assay [6], 100%. The IC50 in the assay with MOLM-13 was 1 nM; in assay [1], 0.4 nM; in the assay on MV4-11 it was 1.3 nM; in assay [7], 0.3 nM; in [2], 1 nM. In addition, the inhibition result in assay [5] is “Active”.
As for `COc1cc(N2CCN(C(C)=O)CC2)ccc1NC(=O)c1cnn2ccc(N[C@@H]3CCCNC3)nc12`, the IC50 with MOLM-13 is 17.4 nM; in [1] it was 1.4 nM; in the assay on MV4-11, 7.66 nM; in [2], 1.2 nM.
Turning to `CSc1cc(N2CCOCC2)ccc1NC(=O)c1cnn2ccc(N[C@@H]3CCCNC3)nc12`, the IC50 in the assay with MOLM-13 is 2.5 nM; in assay [1] it was 1.2 nM; in the assay on MV4-11 it was less than 0.32 nM; in [2] it was 1.6 nM.
In the same order, the values of `COc1ccccc1NC(=O)c1cnn2ccc(N[C@@H]3CCCNC3)nc12` are 19.4 nM, 38.2 nM, 5.3 nM and 144 nM.
The like results for `NC(=O)c1cc(N2CCOCC2)ccc1NC(=O)c1cnn2ccc(N[C@@H]3CCCNC3)nc12` were, in that order, greater than 1000 nM, 8.7 nM, 172 nM and 7.2 nM.
For `COc1cc(N2CCOCC2)ccc1NC(=O)c1cnn2ccc(N3CCC[C@@H](N)C3)nc12`, the IC50 is 28.3 nM in the assay with MOLM-13, 3.5 nM in assay [1], 11.2 nM in the assay on MV4-11 and 1.3 nM in assay [2].
Turning to `O=C(Nc1ccc(N2CCOCC2)cc1C(F)(F)F)c1cnn2ccc(N[C@@H]3CCNC3)nc12`, the IC50 stood at 16.3 nM in the assay on MOLM-13, 5.5 nM in assay [1], 8 nM in the assay on MV4-11 and 96.7 nM in assay [2].
Consider `O=C(Nc1ccc(N2CCOCC2)cc1C(F)(F)F)c1cnn2ccc(NC3CCCCC3)nc12`, for which the half-maximal inhibitory concentration (IC50) (with MOLM-13; in [1]; with MV4-11; in assay [2]) was greater than 1000 nM in each case.
On to `O=C(Nc1ccc(N2CCOCC2)cc1F)c1cnn2ccc(N[C@@H]3CCCNC3)nc12`, for which the IC50 worked out at 16.5 nM in the assay with MOLM-13, 25.1 nM in assay [1], 9.8 nM with MV4-11 and 110 nM in assay [2].
As to `O=C(Nc1ccc(N2CCOCC2)cc1C(F)(F)F)c1cnn2ccc(NC3CCNCC3)nc12`, the IC50 in the assay on MOLM-13 came to 155 nM; in assay [1], 16.5 nM; with MV4-11 it was 28.5 nM; in assay [2] it was 6.7 nM.
For the compound `Cc1cc(N2CCOCC2)ccc1NC(=O)c1cnn2ccc(N[C@@H]3CCCNC3)nc12`, the IC50 is 13.8 nM with MOLM-13, 1.4 nM in [1], 7.5 nM in the assay on MV4-11 and 1.1 nM in [2].
As to `O=C(Nc1ccc(N2CCOCC2)cc1Br)c1cnn2ccc(N[C@@H]3CCCNC3)nc12`, the IC50 was 0.6 nM in the assay on MOLM-13; 0.4 nM in [1]; less than 0.32 nM in the assay with MV4-11; 0.4 nM in assay [7]; 0.8 nM in [2].
Consider `COc1cc(N2CCCC2)ccc1NC(=O)c1cnn2ccc(N[C@@H]3CCCNC3)nc12`, for which the IC50 in the assay with MOLM-13 is 19.5 nM; in assay [1], 7.1 nM; in the assay on MV4-11, 11.7 nM; in assay [2], 83.1 nM.
In the case of `CCOc1cc(N2CCOCC2)ccc1NC(=O)c1cnn2ccc(N[C@@H]3CCCNC3)nc12`, the IC50 in the assay with MOLM-13 is 11.4 nM; in assay [1] it was 2.7 nM; in the assay on MV4-11, 9.8 nM; in assay [2], 4.1 nM.
